Experimental data: US9364479B2, “Use of a receptor-type kinase modulator for treating polycystic kidney disease” (SYMPHONY EVOLUTION, INC., priority 2010, dated 2016)

What was measured:
Glutamate, AMPA Site = experiment: NovaScreen assay; type: binding
[1] = target: T1, Muscarinic, M2 (Human Recombinant) (Homo sapiens, UniProt P08172); experiment: NovaScreen assay; type: binding
T1 construct: NovaScreen

[2] = system: Nicotinic (a-bungarotoxin insensitive); experiment: NovaScreen assay; type: binding
Oxytocin = target: T2, Oxytocin (Homo sapiens, UniProt P30559); experiment: NovaScreen assay; type: binding; conditions: read-out: Inhibition, 10 μM XL-647
T2 construct: NovaScreen

Endothelin, ET-A (Human) = target: T3, Endothelin, ET-A (Human) (Homo sapiens, UniProt P25101); experiment: NovaScreen assay; type: binding; conditions: read-out: Inhibition, 10 μM XL-647
T3 construct: NovaScreen

[3] = system: Glutamic Acid Decarboxylase; experiment: NovaScreen assay; type: biochemical
[4] = system: panel of 10 tyrosine kinases and 55 serine-threonine kinases; experiment: Kinase panel screen; type: biochemical; conditions: incl. insulin and IGF-1 receptor, CDKs, SAPKs, PKC isoforms
p-Y-EGFR = p-Y-EGFR (Homo sapiens, UniProt P00533); experiment: In vivo receptor phosphorylation, A431 xenografts; design: species or system mouse
p-Y-VEGFR2/KDR = target: T4, p-Y-VEGFR2/KDR (Mus musculus, UniProt P35918); experiment: In vivo receptor phosphorylation, murine lung; conditions: read-out: Estimated IC50 (plasma concentration)
T4 construct: from tissue; host or cells: murine lung

[5] = type: in vitro ADME; conditions: human
in vivo = conditions: for AUC(0-t) / Cmax / half-life: po; for dosing terminated because of toxicity: 2 days
Description: The nonclinical Pharmacokinetics (PK) of XL-647 was studied in mice, rats, dogs, and monkeys. Animals were dosed either once or daily over several days, as described in Table 21 and 22 below. A summary of results can also be found in Tables 21 and 22 below. […] Mean tmax values were approximately 4 to 8 hours, and plasma terminal half-lives ranged from 9.41 to 20.9 hours.

[6] = Clinical Study XL-647-001 (Phase 1, Intermittent 5&9 schedule); conditions: human, in vivo
Description: (§1) Enrollment is complete, and all subjects have been off study as of 31 May 2007. Subjects initially received a powder in bottle (PIB) formulation using mass-based dosing. […] The final cohort received a fixed dose of 350 mg in a tablet formulation.

[7] = system: subjects with advanced solid tumors; experiment: as above
Description: as §1

Flt-4 = Flt-4 (Homo sapiens, UniProt P35916); experiment: Flt-4 autophosphorylation ELISA, transfected COS cells; type: cell-based; design: expressed in transfected cells; host or cells: COS cells; conditions: read-out: Cellular IC50, autophosphorylation
Description: The Flt-4 autophosphorylation ELISA utilized COS cells. Cells were seeded at 200,000 cells per well in 6-well plates in DMEM with 10% FBS and grown at 5% CO2 and 37° C. After 24 h growth, cells were transfected with 1 μg/well Flt-4 cDNA, using 3 μl FuGENE-6 (Roche). […] The cell monolayer was washed twice with cold PBS and harvested by scraping into 150 μl ice-cold lysis buffer. Cell lysates were centrifuged at 13,000 g for 15 min, diluted 1:10 in ice-cold PBS, and transferred to clear Streptavidin plates (Pierce) coated with anti-human […] (Flt-4) biotinylated goat IgG (2 μg/well, R&D Biosciences). After washing, anti-Flag M2 mouse IgG-HRP (Sigma 1 to 10,000 dilution) or anti phospho-tyrosine rabbit IgG-HRP (Zymed, 61-5820, 1:10,000) was used to detect total Flt-4 and phosphorylated Flt-4.

Sequence of p-Y-EGFR (P00533 25-1210): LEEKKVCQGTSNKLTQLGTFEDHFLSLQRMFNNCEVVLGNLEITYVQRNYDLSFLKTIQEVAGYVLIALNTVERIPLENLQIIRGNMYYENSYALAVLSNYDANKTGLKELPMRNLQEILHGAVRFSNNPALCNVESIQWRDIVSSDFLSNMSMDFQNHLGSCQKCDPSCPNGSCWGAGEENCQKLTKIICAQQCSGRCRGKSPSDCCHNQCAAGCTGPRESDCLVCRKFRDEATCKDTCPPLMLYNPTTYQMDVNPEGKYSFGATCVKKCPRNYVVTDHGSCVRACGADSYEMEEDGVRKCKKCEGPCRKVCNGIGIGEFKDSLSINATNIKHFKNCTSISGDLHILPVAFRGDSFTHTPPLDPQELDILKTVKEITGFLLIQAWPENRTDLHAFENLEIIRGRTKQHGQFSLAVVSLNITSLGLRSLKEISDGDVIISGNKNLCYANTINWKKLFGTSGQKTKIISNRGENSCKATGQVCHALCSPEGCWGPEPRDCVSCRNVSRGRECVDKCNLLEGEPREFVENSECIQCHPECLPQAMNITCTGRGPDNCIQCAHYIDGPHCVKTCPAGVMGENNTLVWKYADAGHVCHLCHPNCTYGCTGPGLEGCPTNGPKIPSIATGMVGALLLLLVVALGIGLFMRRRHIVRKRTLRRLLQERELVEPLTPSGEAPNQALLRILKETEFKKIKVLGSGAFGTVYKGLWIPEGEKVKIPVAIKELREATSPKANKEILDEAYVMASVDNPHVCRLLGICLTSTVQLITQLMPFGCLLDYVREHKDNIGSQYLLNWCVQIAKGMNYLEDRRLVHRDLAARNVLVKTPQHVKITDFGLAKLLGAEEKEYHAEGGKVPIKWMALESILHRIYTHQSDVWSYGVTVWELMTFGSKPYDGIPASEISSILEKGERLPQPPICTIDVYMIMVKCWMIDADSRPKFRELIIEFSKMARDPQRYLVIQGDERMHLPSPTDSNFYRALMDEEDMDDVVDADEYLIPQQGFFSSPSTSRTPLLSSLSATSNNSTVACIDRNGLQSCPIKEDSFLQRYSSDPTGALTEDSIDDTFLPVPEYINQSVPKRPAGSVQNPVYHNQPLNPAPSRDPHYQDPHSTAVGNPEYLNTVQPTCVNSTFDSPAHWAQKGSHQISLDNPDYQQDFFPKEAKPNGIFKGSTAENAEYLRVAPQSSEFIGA
T1 sequence (P08172 whole entry): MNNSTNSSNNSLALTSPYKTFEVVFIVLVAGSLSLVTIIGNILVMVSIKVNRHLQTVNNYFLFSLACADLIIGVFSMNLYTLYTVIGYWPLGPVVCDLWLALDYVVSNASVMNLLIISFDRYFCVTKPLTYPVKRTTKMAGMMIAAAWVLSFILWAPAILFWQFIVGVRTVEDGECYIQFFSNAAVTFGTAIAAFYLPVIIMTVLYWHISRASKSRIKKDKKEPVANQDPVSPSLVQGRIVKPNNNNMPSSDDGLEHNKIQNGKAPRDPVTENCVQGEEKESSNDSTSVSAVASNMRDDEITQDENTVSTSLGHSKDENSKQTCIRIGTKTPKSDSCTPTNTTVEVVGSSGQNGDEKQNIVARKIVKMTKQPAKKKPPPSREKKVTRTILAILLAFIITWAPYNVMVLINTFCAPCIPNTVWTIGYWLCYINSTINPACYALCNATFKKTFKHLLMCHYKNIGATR
T2 sequence (P30559 whole entry): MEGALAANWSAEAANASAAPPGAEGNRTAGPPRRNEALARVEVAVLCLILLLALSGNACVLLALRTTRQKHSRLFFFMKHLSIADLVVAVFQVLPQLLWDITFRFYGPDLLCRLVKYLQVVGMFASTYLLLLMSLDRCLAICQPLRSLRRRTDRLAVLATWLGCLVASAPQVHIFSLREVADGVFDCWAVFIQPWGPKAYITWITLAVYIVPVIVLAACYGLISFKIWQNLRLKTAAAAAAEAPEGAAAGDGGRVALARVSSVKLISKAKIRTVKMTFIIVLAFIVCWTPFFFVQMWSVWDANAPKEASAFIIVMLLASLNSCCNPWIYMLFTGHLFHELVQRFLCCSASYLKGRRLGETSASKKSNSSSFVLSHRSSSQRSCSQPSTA
Sequence of Flt-4 (P35916 25-1363): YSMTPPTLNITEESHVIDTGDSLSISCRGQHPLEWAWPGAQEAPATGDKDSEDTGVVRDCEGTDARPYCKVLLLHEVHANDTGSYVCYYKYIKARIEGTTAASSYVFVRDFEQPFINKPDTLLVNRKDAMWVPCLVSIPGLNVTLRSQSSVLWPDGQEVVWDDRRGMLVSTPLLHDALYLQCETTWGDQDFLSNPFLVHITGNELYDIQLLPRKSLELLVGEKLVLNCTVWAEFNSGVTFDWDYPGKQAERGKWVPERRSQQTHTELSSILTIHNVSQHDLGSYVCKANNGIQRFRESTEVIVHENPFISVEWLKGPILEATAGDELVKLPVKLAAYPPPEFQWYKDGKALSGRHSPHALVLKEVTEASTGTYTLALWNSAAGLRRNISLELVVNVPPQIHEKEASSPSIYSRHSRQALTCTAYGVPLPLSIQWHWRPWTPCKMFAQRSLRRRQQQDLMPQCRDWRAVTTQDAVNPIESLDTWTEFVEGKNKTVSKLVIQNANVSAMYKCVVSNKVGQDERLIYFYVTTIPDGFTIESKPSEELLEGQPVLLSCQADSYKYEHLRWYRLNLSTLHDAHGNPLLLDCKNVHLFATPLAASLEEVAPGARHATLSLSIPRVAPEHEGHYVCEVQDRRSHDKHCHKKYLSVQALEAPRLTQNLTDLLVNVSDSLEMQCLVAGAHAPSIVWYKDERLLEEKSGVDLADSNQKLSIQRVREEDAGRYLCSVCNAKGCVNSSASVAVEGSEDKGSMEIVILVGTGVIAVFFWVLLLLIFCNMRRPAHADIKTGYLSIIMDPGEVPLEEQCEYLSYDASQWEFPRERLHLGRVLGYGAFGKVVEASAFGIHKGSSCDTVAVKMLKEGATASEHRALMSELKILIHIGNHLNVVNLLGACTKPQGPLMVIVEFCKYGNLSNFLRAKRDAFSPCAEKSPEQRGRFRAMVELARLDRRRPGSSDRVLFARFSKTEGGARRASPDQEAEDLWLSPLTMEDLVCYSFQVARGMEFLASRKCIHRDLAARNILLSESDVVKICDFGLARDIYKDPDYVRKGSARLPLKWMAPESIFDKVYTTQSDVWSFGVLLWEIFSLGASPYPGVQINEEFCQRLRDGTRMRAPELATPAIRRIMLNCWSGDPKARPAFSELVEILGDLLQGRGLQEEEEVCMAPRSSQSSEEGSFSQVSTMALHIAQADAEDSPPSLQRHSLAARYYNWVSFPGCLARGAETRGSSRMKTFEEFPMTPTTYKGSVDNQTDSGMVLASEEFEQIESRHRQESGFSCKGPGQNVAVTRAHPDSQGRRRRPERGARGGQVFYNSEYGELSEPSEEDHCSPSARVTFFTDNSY
T4 sequence (P35918 20-1345): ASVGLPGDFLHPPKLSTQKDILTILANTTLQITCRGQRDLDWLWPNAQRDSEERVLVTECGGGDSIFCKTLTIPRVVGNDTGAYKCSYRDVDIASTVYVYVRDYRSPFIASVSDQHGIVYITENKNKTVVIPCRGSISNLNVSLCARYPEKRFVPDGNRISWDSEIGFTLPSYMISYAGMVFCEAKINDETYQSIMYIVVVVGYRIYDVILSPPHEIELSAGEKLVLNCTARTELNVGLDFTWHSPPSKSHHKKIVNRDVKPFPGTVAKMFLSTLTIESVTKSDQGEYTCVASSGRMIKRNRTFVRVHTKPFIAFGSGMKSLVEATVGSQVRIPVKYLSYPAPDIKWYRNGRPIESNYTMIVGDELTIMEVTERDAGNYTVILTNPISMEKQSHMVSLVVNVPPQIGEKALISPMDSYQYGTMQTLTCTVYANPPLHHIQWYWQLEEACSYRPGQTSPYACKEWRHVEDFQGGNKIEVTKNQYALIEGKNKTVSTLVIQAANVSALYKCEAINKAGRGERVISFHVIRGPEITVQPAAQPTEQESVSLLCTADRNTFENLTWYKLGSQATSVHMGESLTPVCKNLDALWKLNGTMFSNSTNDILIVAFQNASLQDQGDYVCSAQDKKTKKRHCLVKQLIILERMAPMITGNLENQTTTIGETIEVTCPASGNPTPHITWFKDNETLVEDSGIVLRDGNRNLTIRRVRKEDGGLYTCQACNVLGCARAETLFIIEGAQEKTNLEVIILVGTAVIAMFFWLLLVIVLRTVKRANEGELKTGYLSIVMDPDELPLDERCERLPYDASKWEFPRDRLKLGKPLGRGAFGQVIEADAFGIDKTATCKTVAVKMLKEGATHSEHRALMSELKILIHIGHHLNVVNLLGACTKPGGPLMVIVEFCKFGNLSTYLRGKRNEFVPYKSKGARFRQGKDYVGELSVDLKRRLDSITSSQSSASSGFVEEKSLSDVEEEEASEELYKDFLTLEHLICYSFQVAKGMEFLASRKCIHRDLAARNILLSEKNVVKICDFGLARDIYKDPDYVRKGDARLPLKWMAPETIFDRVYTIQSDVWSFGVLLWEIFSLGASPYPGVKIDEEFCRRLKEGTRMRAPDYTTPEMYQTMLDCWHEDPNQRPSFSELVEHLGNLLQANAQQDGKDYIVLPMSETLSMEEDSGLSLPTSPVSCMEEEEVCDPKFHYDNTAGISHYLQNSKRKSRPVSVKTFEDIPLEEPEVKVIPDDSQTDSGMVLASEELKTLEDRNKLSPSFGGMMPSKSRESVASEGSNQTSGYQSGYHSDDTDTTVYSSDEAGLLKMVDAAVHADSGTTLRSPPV

With COc1cc2c(Nc3ccc(Cl)c(Cl)c3F)ncnc2cc1OC[C@@H]1C[C@@H]2CN(C)C[C@@H]2C1 [XL-647, N-(3,4-dichloro-2-fluorophenyl)-7-({[(3aR,5r,6aS)-2-methyloctahydrocyclopenta[c]pyrrol-5-yl]methyl}oxy)-6-(methyloxy)quinazolin-4-amine] the “Inhibition, 10 μM XL-647” value (Glutamate, AMPA Site) was 10.79%, the IC50 [1] was 1180 nM and the inhibition at 10 µM ([1]; read-out: Inhibition, 10 μM XL-647) was 98.7%. For the same compound, the “Inhibition, 10 μM XL-647” value [2] was 53.97%, the inhibition at 10 µM (Oxytocin) was -2.59% and the inhibition at 10 µM (Endothelin, ET-A (Human)) was -11.1%. The “Inhibition, 10 μM XL-647” value [3] was −8.46%, the “activity against kinase panel, in words” value [4] was “inactive” and the “Single Dose Duration of Action (100 mg/kg, >50% inhibition)” value (p-Y-EGFR; A431 xenografts) was over 72 h. It also gave an inhibition at 3 mg/kg (p-Y-EGFR; A-431, mouse, 3 mg/kg, dosed 3.5 hours before EGF) of 41%, an inhibition at 10 mg/kg (p-Y-EGFR; A-431, mouse, 10 mg/kg, dosed 3.5 hours before EGF) of 70% and an inhibition at 30 mg/kg (p-Y-EGFR; A-431, mouse, 30 mg/kg (plasma 4 μM), dosed 3.5 hours before EGF) of 89%. It also gave an inhibition at 100 mg/kg (p-Y-EGFR; A-431, mouse, 100 mg/kg, dosed 3.5 hours before EGF) of 93%, an IC50 (p-Y-EGFR; in vivo, A431 xenografts, PO, read-out: Estimated IC50 (plasma concentration)) of 720 nM and an IC50 (p-Y-VEGFR2/KDR) of 1200 nM. For the same compound, the protein bound [5] was 93-97.5%, the AUC(0-t) (in vivo; female, dog, 100 mg/kg) was 21200 ng·h/mL and the Cmax (in vivo; female, dog, 100 mg/kg) was 1100 ng/mL. For the same compound, the half-life (in vivo; female, dog, 100 mg/kg) was 14.2 h, the AUC(0-t) (in vivo; female, dog, 300 mg/kg) was 17100 ng·h/mL and the Cmax (in vivo; female, dog, 300 mg/kg) was 1610 ng/mL. The half-life (in vivo; female, dog, 300 mg/kg) was 12.1 h, the AUC(0-t) (in vivo; female, dog, 1000 mg/kg) was 34200 ng·h/mL and the Cmax (in vivo; female, dog, 1000 mg/kg) was 5090 ng/mL. The half-life (in vivo; female, dog, 1000 mg/kg) was 16.1 h, the AUC(0-t) (in vivo; female, monkey, 2 mg/kg) was 450 ng·h/mL and the Cmax (in vivo; female, monkey, 2 mg/kg) was 38 ng/mL. The AUC(0-t) (in vivo; female, monkey, 6 mg/kg) was 1690 ng·h/mL, the Cmax (in vivo; female, monkey, 6 mg/kg) was 116 ng/mL and the AUC(0-t) (in vivo; female, monkey, 10 mg/kg) was 4270 ng·h/mL. The Cmax (in vivo; female, monkey, 10 mg/kg) was 216 ng/mL, the half-life (in vivo; female, monkey, 10 mg/kg) was 14.9 h and the AUC(0-t) (in vivo; female, monkey, 20 mg/kg) was 3910 ng·h/mL. The Cmax (in vivo; female, monkey, 20 mg/kg) was 202 ng/mL, the half-life (in vivo; female, monkey, 50 mg/kg) was 14.8 h and the AUC(0-t) (in vivo; female, monkey, 100 mg/kg) was 28000 ng·h/mL. The Cmax (in vivo; female, monkey, 100 mg/kg) was 2160 ng/mL, the half-life (in vivo; female, monkey, 100 mg/kg) was 11.6 h and the AUC(0-t) (in vivo; female, monkey, 150 mg/kg) was 7030 ng·h/mL. The Cmax (in vivo; female, monkey, 150 mg/kg) was 379 ng/mL, the half-life (in vivo; female, monkey, 150 mg/kg) was 20.4 h and the AUC(0-t) (in vivo; male, dog, 100 mg/kg) was 8970 ng·h/mL. It also gave a Cmax (in vivo; male, dog, 100 mg/kg) of 407 ng/mL, a half-life (in vivo; male, dog, 100 mg/kg) of 10.4 h and an AUC(0-t) (in vivo; male, dog, 300 mg/kg) of 7790 ng·h/mL. The Cmax (in vivo; male, dog, 300 mg/kg) was 936 ng/mL, the half-life (in vivo; male, dog, 300 mg/kg) was 12.7 h and the AUC(0-t) (in vivo; male, dog, 1000 mg/kg) was 27300 ng·h/mL. For the same compound, the Cmax (in vivo; male, dog, 1000 mg/kg) was 3770 ng/mL, the half-life (in vivo; male, dog, 1000 mg/kg) was 13.2 h and the AUC(0-t) (in vivo; male, monkey, 2 mg/kg) was 488 ng·h/mL. The Cmax (in vivo; male, monkey, 2 mg/kg) was 28.4 ng/mL, the AUC(0-t) (in vivo; male, monkey, 6 mg/kg) was 1860 ng·h/mL and the Cmax (in vivo; male, monkey, 6 mg/kg) was 106 ng/mL. It also gave an AUC(0-t) (in vivo; male, monkey, 10 mg/kg) of 3630 ng·h/mL, a Cmax (in vivo; male, monkey, 10 mg/kg) of 230 ng/mL and a half-life (in vivo; male, monkey, 10 mg/kg) of 14.7 h. For the same compound, the AUC(0-t) (in vivo; male, monkey, 20 mg/kg) was 3900 ng·h/mL, the Cmax (in vivo; male, monkey, 20 mg/kg) was 194 ng/mL and the half-life (in vivo; male, monkey, 50 mg/kg) was 20.5 h. It also gave an AUC(0-t) (in vivo; male, monkey, 100 mg/kg) of 19600 ng·h/mL, a Cmax (in vivo; male, monkey, 100 mg/kg) of 1220 ng/mL and a half-life (in vivo; male, monkey, 100 mg/kg) of 20.7 h. For the same compound, the AUC(0-t) (in vivo; male, monkey, 150 mg/kg) was 14500 ng·h/mL, the Cmax (in vivo; male, monkey, 150 mg/kg) was 737 ng/mL and the half-life (in vivo; male, monkey, 150 mg/kg) was 19.8 h. The “dosing terminated because of toxicity observed on Days 6 and 7” value (in vivo; monkey, 20 mg/kg) was “then terminated because”, the “dosing terminated because of toxicity” value (in vivo; monkey, 50 mg/kg) was “bid × 2, then terminated” and the “dosing terminated because of toxicity” value (in vivo; monkey, 100 mg/kg) was “qd × 2, then terminated”. For the same compound, the “dosing terminated because of toxicity” value (in vivo; monkey, 300 mg/kg) was “qd × 2, then terminated”, the AUC(0-t) (in vivo; rat, 1 mg/kg) was 198 ng·h/mL and the Cmax (in vivo; rat, 1 mg/kg) was 12.7 ng/mL. It also gave a half-life (in vivo; rat, 1 mg/kg) of 14.4 h, an AUC(0-t) (in vivo; rat, 3 mg/kg) of 776 ng·h/mL and a Cmax (in vivo; rat, 3 mg/kg) of 50.4 ng/mL. It also gave a half-life (in vivo; rat, 3 mg/kg) of 20.4 h, an AUC(0-t) (in vivo; rat, 30 mg/kg) of 5740 ng·h/mL and a Cmax (in vivo; rat, 30 mg/kg) of 319 ng/mL. For the same compound, the half-life (in vivo; rat, 30 mg/kg) was 20.4 h, the AUC(0-t) (in vivo; rat, 100 mg/kg) was 18300 ng·h/mL and the Cmax (in vivo; rat, 100 mg/kg) was 909 ng/mL. For the same compound, the AUC(0-t) (in vivo; rat, 200 mg/kg) was 29500 ng·h/mL, the Cmax (in vivo; rat, 200 mg/kg) was 1000 ng/mL and the AUC(0-t) (in vivo; rat, 600 mg/kg) was 41200 ng·h/mL. The Cmax (in vivo; rat, 600 mg/kg) was 1330 ng/mL, the AUC(0-t) (in vivo; rat, 2000 mg/kg) was 53000 ng·h/mL and the Cmax (in vivo; rat, 2000 mg/kg) was 1690 ng/mL. For the same compound, the MTD [6] was 4.68 mg/kg, the “MTD converted to a fixed dose” value ([7]; Intermittent 5&9 schedule) was 350 mg and the “subjects with unconfirmed partial response (PR)” value ([7]; NSCLC, Day 228) was “one”. The “other subjects with prolonged stable disease lasting greater than 3 months” value ([7]; intermittent schedule) was 14 subjects and the IC50 (Flt-4) was 90 nM.
